Reference: patent US6525001B1, “Substituted pyrimidine and pyridine herbicides” (Mid-American Commercialization Corporation, priority 1997, dated 2003)

Assays:
Assay type in all cases: in vivo
[1] = test system: pigweed (Amaranthus retroflexus); test: Test B pre-/postemergence; parameters: key: 0 is no effect; 10 is complete control
Summary of the method: (§1)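 Compounds in a surfactant-containing, non-phytotoxic solvent blend are applied to freshly planted seed (preemergence) and, concurrently, to seedlings of 2 to 18 cm at 1–4 leaves (postemergence). Plants stay in the greenhouse twelve to sixteen days and are then scored visually from 0 (no effect) to 10 (complete control).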

[2] = test system: velvetleaf (Abutilon theophrasti); test: Test B pre-/postemergence; parameters: key: 0 is no effect; 10 is complete control
Summary of the method: as §1

[3] = test system: momingglory (Ipomoea hederacea); test: Test B pre-/postemergence; parameters: key: 0 is no effect; 10 is complete control
Summary of the method: as §1

[4] = test system: broadleaf signalgrass (Brachiaria decumbens); test: Test B pre-/postemergence; parameters: key: 0 is no effect; 10 is complete control; conditions: for B. signalgrass plant response rating: Preemergence
Summary of the method: as §1

[5] = test system: sugar beet (Beta vulgaris); test: Test B pre-/postemergence; parameters: key: 0 is no effect; 10 is complete control
Summary of the method: as §1

[6] = test system: cocklebur (Xanthium strumarium); test: Test B pre-/postemergence; parameters: key: 0 is no effect; 10 is complete control; conditions: for Cocklebur plant response rating: Preemergence
Summary of the method: as §1

[7] = test system: bedstraw (Galium aparine); test: Test B pre-/postemergence; parameters: key: 0 is no effect; 10 is complete control; conditions: for Bedstraw plant response rating: Preemergence
Summary of the method: as §1

corn (Zea mays) = test: Test B pre-/postemergence; parameters: key: 0 is no effect; 10 is complete control; conditions: for Corn plant response rating: Preemergence
Summary of the method: as §1

[8] = test system: purple nutsedge (Cyperus rotundus); test: Test B pre-/postemergence; parameters: key: 0 is no effect; 10 is complete control
Summary of the method: as §1

soybean (Glycine max) = test: Test B pre-/postemergence; parameters: key: 0 is no effect; 10 is complete control
Summary of the method: as §1

wild oat (Avena fatua) = test: Test B pre-/postemergence; parameters: key: 0 is no effect; 10 is complete control
Summary of the method: as §1

[9] = test system: crabgrass (Digitaria sanguinalis); test: Test B pre-/postemergence; parameters: key: 0 is no effect; 10 is complete control; conditions: for Crabgrass plant response rating: Preemergence
Summary of the method: as §1

rape (Brassica napus) = test: Test B pre-/postemergence; parameters: key: 0 is no effect; 10 is complete control
Summary of the method: as §1

[10] = test system: blackgrass (Alopecurus myosuroides); test: Test B pre-/postemergence; parameters: key: 0 is no effect; 10 is complete control; conditions: for Blackgrass plant response rating: Preemergence
Summary of the method: as §1

[11] = test system: giant foxtail (Setaria faberii); test: Test B pre-/postemergence; parameters: key: 0 is no effect; 10 is complete control
Summary of the method: as §1

[12] = test system: wheat (Triticum aestivum); test: Test B pre-/postemergence; parameters: key: 0 is no effect; 10 is complete control
Summary of the method: as §1

[13] = test system: duck salad (Heteranthera limosa); test: Test B flood test
Summary of the method: (§2)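 Read-out is a visual response score from 0 (no effect) to 10 (complete control), assigned by comparison with untreated controls. Treatment was applied at the 2-leaf stage, and plants stayed in the greenhouse for twelve to sixteen days before scoring.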

[14] = test system: smallflower flatsedge (Cyperus difformis); test: Test B flood test
Summary of the method: as §2

[15] = test system: bamyardgrass (Echinochloa crus-galli); test: Test B flood test
Summary of the method: as §2

rice (Oryza sativa) = test: Test B flood test
Summary of the method: as §2

[16] = Rate 250 g/ha, Postemergence (so in the source)
[17] = Rate 62 g/ha, Postemergence (flood test)
[18] = Rate 125 g/ha, Postemergence, flood test
[19] = Rate 250 g/ha, Postemergence (flood test species)
[20] = Rate 125 g/ha, Postemergence section (flood test species)

`Cc1cnc(-c2ccc(C#N)cc2)nc1Cc1cccc(C(F)(F)F)c1` [Compound 30] was tested, and the “Plant response rating, Redroot pigweed” value ([1]; Rate 62 g/ha, Postemergence) was 7, the “Redroot pigweed plant response rating” value ([1]; Rate 62 g/ha, Preemergence) was 2 and the “Redroot pigweed plant response rating” value ([1]; Rate 125 g/ha, Postemergence) was 9. For the same compound, the “Redroot pigweed plant response rating” value ([1]; Rate 125 g/ha, Preemergence) was 7, the “Plant response rating, Redroot pigweed” value ([1]; Rate 250 g/ha, Postemergence) was 9 and the “Plant response rating, Redroot pigweed” value [1, 16] was 10. For the same compound, the “Plant response rating, Velvetleaf” value ([2]; Rate 62 g/ha, Postemergence) was 5, the “Velvetleaf plant response rating” value ([2]; Rate 62 g/ha, Preemergence) was 1 and the “Velvetleaf plant response rating” value ([2]; Rate 125 g/ha, Postemergence) was 6. The “Plant response rating, Velvetleaf” value ([2]; Rate 125 g/ha, Preemergence) was 2, the “Plant response rating, Velvetleaf” value ([2]; Rate 250 g/ha, Postemergence) was 8 and the “Plant response rating, Velvetleaf” value [2, 16] was 6. For the same compound, the “Plant response rating, Morningglory” value ([3]; Rate 62 g/ha, Postemergence) was 2, the “Morningglory plant response rating” value ([3]; Rate 62 g/ha, Preemergence) was 1 and the “Morningglory plant response rating” value ([3]; Rate 125 g/ha, Postemergence) was 5. The “Morningglory plant response rating” value ([3]; Rate 125 g/ha, Preemergence) was 1, the “Plant response rating, Morningglory” value ([3]; Rate 250 g/ha, Postemergence) was 9 and the “Plant response rating, Morningglory” value [3, 16] was 3. The “Plant response rating, B. signalgrass” value ([4]; Rate 62 g/ha, Postemergence) was 1, the “B. signalgrass plant response rating” value ([4]; Rate 62 g/ha) was 1 and the “Plant response rating, B. signalgrass” value ([4]; Rate 125 g/ha, Postemergence) was 2. The “B. signalgrass plant response rating” value ([4]; Rate 125 g/ha) was 4, the “Plant response rating, B. signalgrass” value ([4]; Rate 250 g/ha, Postemergence) was 2 and the “Plant response rating, B. signalgrass” value ([4]; Rate 250 g/ha, Postemergence as printed in head r139 (second section for compounds 26-50)) was 6. For the same compound, the “Plant response rating, Sugarbeets” value ([5]; Rate 62 g/ha, Postemergence) was 10, the “Sugarbeets plant response rating” value ([5]; Rate 62 g/ha, Preemergence) was 6 and the “Sugarbeets plant response rating” value ([5]; Rate 125 g/ha, Postemergence) was 10. For the same compound, the “Plant response rating, Sugarbeets” value ([5]; Rate 125 g/ha, Preemergence) was 9, the “Plant response rating, Sugarbeets” value ([5]; Rate 250 g/ha, Postemergence) was 10 and the “Plant response rating, Sugarbeets” value [5, 16] was 10. For the same compound, the “Plant response rating, Cocklebur” value ([6]; Rate 62 g/ha, Postemergence) was 5, the “Cocklebur plant response rating” value ([6]; Rate 62 g/ha) was 0 and the “Plant response rating, Cocklebur” value ([6]; Rate 125 g/ha, Postemergence) was 8. The “Cocklebur plant response rating” value ([6]; Rate 125 g/ha) was 0, the “Plant response rating, Cocklebur” value ([6]; Rate 250 g/ha, Postemergence) was 8 and the “Plant response rating, Cocklebur” value [6, 16] was 0. For the same compound, the “Plant response rating, Bedstraw” value ([7]; Rate 62 g/ha, Postemergence) was 1, the “Bedstraw plant response rating” value ([7]; Rate 62 g/ha) was 3 and the “Plant response rating, Bedstraw” value ([7]; Rate 125 g/ha, Postemergence) was 6. The “Bedstraw plant response rating” value ([7]; Rate 125 g/ha) was 10, the “Plant response rating, Bedstraw” value ([7]; Rate 250 g/ha, Postemergence) was 6 and the “Plant response rating, Bedstraw” value [7, 16] was 10. The “Plant response rating, Corn” value (corn (Zea mays); Rate 62 g/ha, Postemergence) was 1, the “Corn plant response rating” value (corn (Zea mays); Rate 62 g/ha) was 0 and the “Plant response rating, Corn” value (corn (Zea mays); Rate 125 g/ha, Postemergence) was 2. The “Corn plant response rating” value (corn (Zea mays); Rate 125 g/ha) was 0, the “Plant response rating, Corn” value (corn (Zea mays); Rate 250 g/ha, Postemergence) was 2 and the “Plant response rating, Corn” value (corn (Zea mays); [16]) was 0. The “Plant response rating, Nutsedge” value ([8]; Rate 62 g/ha, Postemergence) was 0, the “Nutsedge plant response rating” value ([8]; Rate 62 g/ha, Preemergence) was 0 and the “Nutsedge plant response rating” value ([8]; Rate 125 g/ha, Postemergence) was 0. The “Nutsedge plant response rating” value ([8]; Rate 125 g/ha, Preemergence) was 0, the “Plant response rating, Nutsedge” value ([8]; Rate 250 g/ha, Postemergence) was 2 and the “Plant response rating, Nutsedge” value [8, 16] was 0. The “Plant response rating, Soybean” value (soybean (Glycine max); Rate 62 g/ha, Postemergence) was 3, the “Soybean plant response rating” value (soybean (Glycine max); Rate 62 g/ha, Preemergence) was 0 and the “Soybean plant response rating” value (soybean (Glycine max); Rate 125 g/ha, Postemergence) was 3. The “Plant response rating, Soybean” value (soybean (Glycine max); Rate 125 g/ha, Preemergence) was 0, the “Plant response rating, Soybean” value (soybean (Glycine max); Rate 250 g/ha, Postemergence) was 6 and the “Plant response rating, Soybean” value (soybean (Glycine max); [16]) was 0. The “Wild oats plant response rating” value (wild oat (Avena fatua); Rate 62 g/ha, Postemergence) was 1, the “Wild oats plant response rating” value (wild oat (Avena fatua); Rate 62 g/ha, Preemergence) was 1 and the “Wild oats plant response rating” value (wild oat (Avena fatua); Rate 125 g/ha, Postemergence) was 2. For the same compound, the “Plant response rating, Wild oats” value (wild oat (Avena fatua); Rate 125 g/ha, Preemergence) was 1, the “Plant response rating, Wild oats” value (wild oat (Avena fatua); Rate 250 g/ha, Postemergence) was 2 and the “Plant response rating, Wild oats” value (wild oat (Avena fatua); [16]) was 2. For the same compound, the “Plant response rating, Crabgrass” value ([9]; Rate 62 g/ha, Postemergence) was 1, the “Crabgrass plant response rating” value ([9]; Rate 62 g/ha) was 1 and the “Plant response rating, Crabgrass” value ([9]; Rate 125 g/ha, Postemergence) was 1. The “Crabgrass plant response rating” value ([9]; Rate 125 g/ha) was 3, the “Plant response rating, Crabgrass” value ([9]; Rate 250 g/ha, Postemergence) was 7 and the “Plant response rating, Crabgrass” value [9, 16] was 8. For the same compound, the “Plant response rating, Rape” value (rape (Brassica napus); Rate 62 g/ha, Postemergence) was 4, the “Rape plant response rating” value (rape (Brassica napus); Rate 62 g/ha, Preemergence) was 0 and the “Rape plant response rating” value (rape (Brassica napus); Rate 125 g/ha, Postemergence) was 8. For the same compound, the “Rape plant response rating” value (rape (Brassica napus); Rate 125 g/ha, Preemergence) was 2, the “Plant response rating, Rape” value (rape (Brassica napus); Rate 250 g/ha, Postemergence) was 10 and the “Plant response rating, Rape” value (rape (Brassica napus); [16]) was 3. The “Plant response rating, Blackgrass” value ([10]; Rate 62 g/ha, Postemergence) was 0, the “Blackgrass plant response rating” value ([10]; Rate 62 g/ha) was 0 and the “Plant response rating, Blackgrass” value ([10]; Rate 125 g/ha, Postemergence) was 1. The “Blackgrass plant response rating” value ([10]; Rate 125 g/ha) was 2, the “Plant response rating, Blackgrass” value ([10]; Rate 250 g/ha, Postemergence) was 1 and the “Plant response rating, Blackgrass” value [10, 16] was 2. The “Plant response rating, Giant foxtail” value ([11]; Rate 62 g/ha, Postemergence) was 1, the “Giant foxtail plant response rating” value ([11]; Rate 62 g/ha, Preemergence) was 1 and the “Giant foxtail plant response rating” value ([11]; Rate 125 g/ha, Postemergence) was 1. The “Giant foxtail plant response rating” value ([11]; Rate 125 g/ha, Preemergence) was 5, the “Plant response rating, Giant foxtail” value ([11]; Rate 250 g/ha, Postemergence) was 2 and the “Plant response rating, Giant foxtail” value [11, 16] was 9. For the same compound, the “Wheat plant response rating” value ([12]; Rate 62 g/ha, Postemergence) was 1, the “Wheat plant response rating” value ([12]; Rate 62 g/ha, Preemergence) was 0 and the “Wheat plant response rating” value ([12]; Rate 125 g/ha, Postemergence) was 2. For the same compound, the “Plant response rating, Wheat” value ([12]; Rate 125 g/ha, Preemergence) was 0, the “Plant response rating, Wheat” value ([12]; Rate 250 g/ha, Postemergence) was 2 and the “Plant response rating, Wheat” value [12, 16] was 0. The “Plant response rating, Ducksalad” value [13, 17] was 3, the “Plant response rating, Ducksalad” value [13, 18] was 4 and the “Plant response rating, Ducksalad” value [13, 19] was 5. The “Plant response rating, S. Flatsedge” value [14, 17] was 4, the “S. Flatsedge plant response rating” value [14, 20] was 6 and the “Plant response rating, S. Flatsedge” value [14, 19] was 8. For the same compound, the “Plant response rating, Barnyardgrass” value [15, 17] was 3, the “Plant response rating, Barnyardgrass” value [15, 18] was 3 and the “Plant response rating, Barnyardgrass” value [15, 19] was 4. The “Plant response rating, Rice” value (rice (Oryza sativa); [17]) was 1, the “Rice plant response rating” value (rice (Oryza sativa); [20]) was 1 and the “Plant response rating, Rice” value (rice (Oryza sativa); [19]) was 2.
